Data from patent publication US12465615B2, “Aqueous solutions containing purines and pyrimidines and uses thereof” (UCB BIOSCIENCES, INC., priority 2021, dated 2025).

What was measured:
Assay type in all cases: physicochemical
[1] = Solubility of thymidine in aqueous liquids (300 mg in 3.0 mL, stirring, HPLC)
Description: The solubility of thymidine was investigated wherein the dissolving liquid was water, pH 3 buffered water, and deoxycytidine containing water. The deoxycytidine employed in the solubility studies is referred to as Form A deoxycytidine, e.g. as described in U.S. Patent Publication 2021/0054014, which is incorporated herein by reference. Form A deoxycytidine is characterized by an X-ray diffraction pattern comprising peaks at 8.4, 12.9, 14.2, 16.8, 18.4, 19.4, 28.4, 30.0, and 30.6 degrees two-theta (2θ) (+/−0.2). The X-ray diffraction pattern can be recorded using CuKα1 radiation.
(§1) The procedure involved adding 300 mg of the thymidine to 3.0 mL of liquid and stirring. The three liquids were water, water wherein 50 mg/mL of deoxycytidine had already been dissolved, and water buffered at about pH 3. The pH 3 buffered water was created by adding 821 mg of anhydrous citric acid and 213 mg of sodium citrate dehydrate to a 100 mL volumetric flask and adding water to the 100 mL mark while dissolving the solids. The deoxycytidine solution was created by adding 500 mg of deoxycytidine to a 10 mL volumetric flask and filling the flask with water while dissolving the solids, yielding a pH of 8.23 and a deoxycytidine concentration of about 50 mg/mL.
(§2) The liquids were stirred and samples were withdrawn at 5 mins, 10 mins, and 24 hours. At each time period 0.7 mL of the suspension was removed and subjected to filtration through a 0.45 μm PTFE filter, and 0.3 mL of the suspension was removed and centrifuged at 10,000 rpm for 2 minutes. The filtrate from the filtration and the supernatant from the centrifugation were subjected to high performance liquid chromatography (HPLC) to determine the amount of dissolved thymidine.
Solubilities are reported in mg/mL.

[2] = pH of thymidine suspensions after stirring
Procedure: as §1, §2
The pH of the suspensions were also recorded.

[3] = Reconstitution of thymidine in water with differing amounts of deoxycytidine (HPLC content after 2 minutes of mixing); conditions: 6000 mg dT in 120 mL water
Procedure: The solubility of thymidine in combination with different amounts of deoxycytidine was determined using HPLC and reconstitution methods as described below.
Each 50 mg/mL stock solution was prepared by adding 120 mL of purified water to a 400 mL beaker, stirring the water at 650 rpm, and then adding the amounts of thymidine and/or deoxycytidine as listed in the Table 3 below for each sample to form mixtures.
Each mixture was stirred at 650 rpm for about 1 minute, after which the stirring was reduced to 150 rpm and maintained at 150 rpm for about 1 minute. After about 2 minutes total, the mixture was filtered through a 0.45 μm syringe filter to obtain filtered stock solutions for each sample.
0.9 mg/mL intermediate solutions of each of the above samples were prepared by adding 1.0 mL of the respective filtered stock solution into a 50 mL volumetric flask and diluting to volume with a diluent (e.g., water) and mixing.
0.09 mg/mL working solutions of each of the above samples were prepared by adding 1.0 mL of the respective intermediate solution into a 10 mL volumetric flask and diluting to volume with a diluent (e.g., water) and mixing. The resulting mixture was transferred to an HPLC vial.
Working solutions for each of the above samples were subjected to HPLC analysis utilizing the conditions and parameters below and in Table 4. The data collected from the HPLC analysis was then used to calculate percent content of thymidine dissolved for each sample after 2 minutes of mixing. • Mobile Phase A: Purified Water (degassed by sonication) • […] (degassed by sonication)
[formula] • ASample=Peak area of dC or dT in the sample solution • WStd=Weight of dC or dT reference material [mg] • PurityStd=Purity of dC or dT reference material in %/100 • VSample=Dilution of sample solution corrected with dC or dT [mL] • LCFW=Correction factor of Label Claim and fill weight/0.4825 (2000 mg/4145 mg) • AStd=Mean peak area of dC or dT in the 6 injections of Std1 at beginning • WSample=Weight of sample (mg) • VStd=Dilution of standard solution [mL]/50 mL • 100=Conversion in % Results
The dC Level is the percentage of the mass of dC relative to dT. The dT Content is the percentage of dT in solution within 2 minutes of stirring in the presence of the indicated dC level.

[4] = Water with 50 mg/mL of deoxycytidine, stirring 24 hrs
[5] = pH 3 buffered water, stirring 10 mins
[6] = pH 3 buffered water, stirring 24 hrs

thymidine solubility higher than the thymidine solubility in water ([1]; 50 mg/mL deoxycytidine solution versus water, 5 minutes): about 38% | Dissolved thymidine [1, 4]: 65.62 mg/mL | Dissolved thymidine ([1]; Water, stirring 24 hrs): 51.04 mg/mL | thymidine solubility higher than in water ([1]; deoxycytidine liquid versus water, 10 minutes): about 58% | Dissolved thymidine [1, 5]: 59.66 mg/mL | Dissolved thymidine [1, 6]: 52.04 mg/mL | pH of suspensions ([2]; Water with 50 mg/mL of deoxycytidine, stirring 5 mins): 7.3 | pH of suspensions ([2]; Water with 50 mg/mL of deoxycytidine, stirring 10 mins): 7.1 | pH of suspensions [2, 4]: 7.3 | pH of suspensions ([2]; Water, stirring 5 mins): 7.3 | pH of suspensions ([2]; Water, stirring 10 mins): 7.3 | pH of suspensions ([2]; Water, stirring 24 hrs): 7.3 | pH of suspensions ([2]; pH 3 buffered water, stirring 5 mins): 3.2 | pH of suspensions [2, 5]: 3.1 | pH of suspensions [2, 6]: 3.1 | dT Content (percentage of dT in solution within 2 minutes of stirring) ([3]; dC Level 0 % (mass of dC relative to dT)): 89.09% | dT Content (percentage of dT in solution within 2 minutes of stirring) ([3]; dC Level 10 %): 93.39% | dT Content (percentage of dT in solution within 2 minutes of stirring) ([3]; dC Level 20 %): 92.69% | dT Content (percentage of dT in solution within 2 minutes of stirring) ([3]; dC Level 40 %): 95.68% | dT Content (percentage of dT in solution within 2 minutes of stirring) ([3]; dC Level 80 %): 96.78% | dT Content (percentage of dT in solution within 2 minutes of stirring) ([3]; dC Level 100 %): 95.91%
Structure (SMILES): Cc1cn([C@H]2C[C@H](O)[C@@H](CO)O2)c(=O)[nH]c1=O [thymidine]
